This is an account of results in publication PMC10680098 (Nature, 2023).

A short description of series [1]: in vitro intrinsic clearance. The settings on record: metabolic stability, details in SI. The series is classed as in vitro ADME.
The subject of series [2] is CFTR, cystic fibrosis transmembrane conductance regulator. Put plainly: CFTR rescue activity. The series is classed as cell-based. The note with it: result given in words only; RC50 value is in Fig. 4b, which could not be read.
Series [3] in a line: solubility at different pH values. The settings on record: at all measured pH values. The series is classed as physicochemical.

Some results are limits rather than exact numbers.

Consider `CCN(CC)CCNC(=O)C12C3C4C1C1C2C3C41NC(C)=O` (stereo not drawn) [compound 58, Cuba-Acecainide], for which the “in vitro intrinsic clearance (CLint)” value in series [1] is < 7 μL/min/10^6 cells.
Take `Cc1ccc(NC(=O)C2(c3ccc4c(c3)OC(F)(F)O4)CC2)nc1C12C3C4C5C3C1C5(C(=O)O)C42` (stereo not drawn) [compound 56, Cuba-Lumacaftor]: the “in vitro intrinsic clearance (CLint)” value is given as < 7 μL/min/10^6 cells in series [1] and 6.98 μL/min/10^6 cells in series [1] (listed as Cuba-Lumacaftor). Also, in series [2], the “activity (half-maximal rescue concentration, RC50)” value is on record as “high activity”. Further, the “solubility compared to the parent benzene-containing drug” value in series [3] is reported as “improved solubility”.
On to `Cc1ccc(NC(=O)C2(c3ccc4c(c3)OC(F)(F)O4)CC2)nc1-c1cccc(C(=O)O)c1` [compound 57, reference compound], for which the “in vitro intrinsic clearance (CLint)” value in series [1] is recorded as 11.96 μL/min/10^6 cells.
